Strand notation (5' to 3'): a small letter for the sugar, then the base; units joined by * are phosphorothioate-linked, units joined directly phosphodiester-linked; [ ] holds rarer units or linkages, { } end groups; capitals alone tell only the bases. e = 2'-O-(2-methoxyethyl) (MOE); k = constrained ethyl (cEt); [5mC] = 5-methylcytosine; d = 2'-deoxy (DNA)
Columns and labels:
Format in all cases: cell-based
Yap1 mRNA [1] = assay: Antisense inhibition of human Yap1 in A-431 cells by cEt gapmers, single dose (Example 3, RTS36584)
Method: Modified oligonucleotides were designed to target a Yap1 nucleic acid and were tested for their effect on Yap1 mRNA level in vitro. The modified oligonucleotides were tested in a series of experiments that had similar culture conditions. Cultured A-431 cells at a density of 5,000 cells per well were treated using free uptake with 2,000 nM of modified oligonucleotide. After a treatment period of approximately 48 hours, RNA was isolated from the cells and Yap1 mRNA levels were measured by quantitative real-time RTPCR. Human primer probe set RTS36584 (forward sequence […], designated herein as SEQ ID NO.: 14; reverse sequence […], designated herein as SEQ ID NO.: 15; probe sequence […], designated herein as SEQ ID NO.: 16) was used to measure mRNA levels. Yap1 mRNA levels were normalized to total RNA content, as measured by RIBOGREEN®. Results are presented in the tables below as percent control of the amount of Yap1 mRNA relative to untreated control cells (% UTC). The modified oligonucleotides with percent control values marked with an asterisk (*) target the amplicon region of the primer probe set. Additional assays may be used to measure the potency and efficacy of the modified oligonucleotides targeting the amplicon region.
The newly designed modified oligonucleotides in the Tables below were designed as 3-10-3 cEt gapmers. The gapmers are 16 nucleosides in length, wherein the central gap segment comprises of ten 2′-deoxynucleosides and is flanked by wing segments on the 5′ direction and the 3′ direction comprising three nucleosides each. Each nucleoside in the 5′ wing segment and each nucleoside in the 3′ wing segment has a cEt sugar modification. The internucleoside linkages throughout each gapmer are phosphorothioate (P═S) linkages. All cytosine residues throughout each gapmer are 5-methylcytosines.
“Start site” indicates the 5′-most nucleoside to which the gapmer is targeted in the human gene sequence. “Stop site” indicates the 3′-most nucleoside to which the gapmer is targeted human gene sequence. […] Activity of the modified oligonucleotide may be defined in a different experiment.

Yap1 mRNA [2] = assay: Antisense inhibition of human Yap1 in A-431 cells by cEt gapmers, single dose (Example 2, RTS4814)
Summary of the method: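 Read-out is Yap1 mRNA as percent of untreated cells, by real-time RT-PCR (probe set RTS4814) normalized to total RNA via RIBOGREEN. Cells were A-431 dosed with 2,000 nM gapmer without transfection for approximately 48 hours.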

Yap1 mRNA [3] = assay: Antisense inhibition of human Yap1 in SNU-449 cells by modified oligonucleotides, single dose (Example 5, RTS36584); conditions: for YAP1 (% UTC): SNU-449 cells, 10,000 cells per well, RTS36584
Summary of the method: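 Values are Yap1 mRNA as percent of untreated control cells, measured by quantitative real-time RT-PCR using RTS36584 and normalised to total RNA by RIBOGREEN. Cells were SNU-449, dosed by free uptake at 2,000 nM for approximately 48 hours.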

[4] = Table 12, A-431 cells, 5,000 cells per well, free uptake, 2,000 nM modified oligonucleotide, approx. 48 hours, RTS36584, normalized to RIBOGREEN, Yap1 mRNA relative to untreated control cells
[5] = Table 9, A-431 cells, 5,000 cells per well, free uptake, 2,000 nM, approximately 48 hours, RTS36584, normalized to RIBOGREEN, Yap1 mRNA relative to untreated control cells
[6] = Table 29, Yap1 mRNA as percent of untreated control, 3-10-3 cEt gapmers targeting SEQ ID NO.: 1, and 2
[7] = Table 28, Yap1 mRNA as percent of untreated control, 3-10-3 cEt gapmers targeting SEQ ID NO.: 1, and 2
[8] = Table 13, A-431 cells, 5,000 cells per well, free uptake, 2,000 nM modified oligonucleotide, approx. 48 hours, RTS36584, normalized to RIBOGREEN, Yap1 mRNA relative to untreated control cells
[9] = Yap1 mRNA, percent of untreated control, modified oligonucleotides targeting SEQ ID NO: 1 and 2, Table 47
[10] = Table 22, Yap1 mRNA as percent of untreated control, 3-10-3 cEt gapmers, single dose
[11] = Table 48, Yap1 mRNA level relative to untreated control, modified oligonucleotides targeting SEQ ID NO.: 1 and 2

958794 (antisense kT*kT*k[5mC]*d[5mC]*dG*d[5mC]*dA*dT*dT*dG*d[5mC]*d[5mC]*dT*kA*kA*kG) [Compound 958794]
YAP1 (% UTC) (Yap1 mRNA [1]; [4]): 14 % UTC

958671 (k[5mC]*kA*kT*dT*dA*dT*dA*dT*dG*dG*d[5mC]*dA*d[5mC]*k[5mC]*k[5mC]*kA; antisense) [Compound 958671]
YAP1 (% UTC) (Yap1 mRNA [1]; [5]): 19 % UTC

1075311 (antisense kA*kG*kT*dA*dA*dT*dT*dA*dA*dA*d[5mC]*dG*dA*kA*kA*k[5mC]) [compound 1075311]
YAP1 (% UTC) (Yap1 mRNA [1]; [6]): 100 % UTC

1074862 (kT*kA*kT*dG*dA*dG*d[5mC]*dA*dT*dG*d[5mC]*dT*d[5mC]*kT*kT*kA; antisense) [compound 1074862]
YAP1 (% UTC) (Yap1 mRNA [1]; [7]): 56 % UTC

958600 (kG*kT*kA*dG*dA*dT*d[5mC]*dT*dA*dA*dG*dA*dA*kG*k[5mC]*k[5mC]; antisense) [Compound 958600]
YAP1 (% UTC) (Yap1 mRNA [1]; [8]): 8 % UTC

958665 (k[5mC]*kT*kG*d[5mC]*dA*dT*dA*d[5mC]*d[5mC]*d[5mC]*dT*d[5mC]*d[5mC]*kA*kG*k[5mC]; antisense) [Compound 958665]
YAP1 (% UTC) (Yap1 mRNA [1]; [8]): 84 % UTC

1075087 (antisense kT*k[5mC]*kT*d[5mC]*dA*dA*dT*dA*dA*dG*dT*dT*dA*kT*kA*kG) [compound 1075087]
YAP1 (% UTC) (Yap1 mRNA [1]; [6]): 39 % UTC

958685 (antisense kA*kG*k[5mC]*dT*dA*dT*dG*dG*dA*dA*dA*dG*dT*kG*kT*k[5mC]) [Compound 958685]
YAP1 (% UTC) (Yap1 mRNA [1]; [8]): 24 % UTC

958394 (antisense kT*kT*kG*dA*dA*dA*d[5mC]*d[5mC]*dT*dG*dA*dT*d[5mC]*k[5mC]*kT*kT) [Compound 958394]
YAP1 (% UTC) (Yap1 mRNA [1]; Table 8, A-431 cells, 5,000 cells per well, free uptake, 2,000 nM, approximately 48 hours, RTS36584, normalized to RIBOGREEN, Yap1 mRNA relative to untreated control cells): 54 % UTC

1076341 (antisense kA*kT*kT*dA*dA*d[5mC]*dT*dA*d[5mC]*dA*dA*d[5mC]*dT*kG*kT*kG) [compound 1076341]
YAP1 (% UTC) (Yap1 mRNA [1]; Table 35, Yap1 mRNA as percent of untreated control, 3-10-3 cEt gapmers targeting SEQ ID NO: 1 and 2, single dose): 18 % UTC

958644 (antisense kA*kT*kG*dA*dT*d[5mC]*dA*dA*dA*d[5mC]*d[5mC]*dT*dT*kT*kT*k[5mC]) [Compound 958644]
YAP1 (% UTC) (Yap1 mRNA [1]; [4]): 5 % UTC

958571 (k[5mC]*kA*kA*d[5mC]*dA*dA*d[5mC]*dA*dT*dG*d[5mC]*dT*dA*kT*kG*kT; antisense) [Compound 958571]
YAP1 (% UTC) (Yap1 mRNA [1]; [5]): 43 % UTC

958658 (kA*k[5mC]*kA*dG*dT*dA*dT*dA*dA*dT*dA*dT*d[5mC]*k[5mC]*kT*kA; antisense) [Compound 958658]
YAP1 (% UTC) (Yap1 mRNA [1]; Table 11, A-431 cells, 5,000 cells per well, free uptake, 2,000 nM oligonucleotide, approx. 48 hours, primer probe set RTS36584, Yap1 mRNA normalized to RIBOGREEN, percent of untreated control): 6 % UTC

1075022 (antisense kA*kT*kT*dT*dA*d[5mC]*dA*dA*d[5mC]*d[5mC]*dT*dA*dG*kA*kT*kT) [compound 1075022]
YAP1 (% UTC) (Yap1 mRNA [1]; [7]): 91 % UTC

1074756 (kG*k[5mC]*kA*d[5mC]*dT*dT*dT*dT*dA*d[5mC]*dA*dT*dT*kA*kG*kG) [Compound 1074756]
YAP1 (% UTC) (Yap1 mRNA [2]; Table 18, A-431 cells, 5,000 cells per well, free uptake, 2,000 nM modified oligonucleotide, approx. 48 hours, RTS4814, normalized to RIBOGREEN, Yap1 mRNA as percent of untreated control): 3 % UTC
YAP1 (% UT) (Yap1 mRNA [3]; [9]): 8 % UT

1074728 (antisense kT*kG*kA*dG*dG*dT*dA*dT*dA*dA*d[5mC]*dT*dG*kG*kG*k[5mC]) [Compound 1074728]
YAP1 (% UTC) (Yap1 mRNA [2]; [10]): 3 % UTC
YAP1 (% UT) (Yap1 mRNA [3]; [11]): 14 % UT

716444 (kA*kA*kA*dT*dT*dG*dT*d[5mC]*dT*d[5mC]*dA*dT*dG*k[5mC]*k[5mC]*kT) [Compound 716444]
YAP1 (% UTC) (Yap1 mRNA [2]; Table 6, A-431 cells, 5,000 cells per well, free uptake, 2,000 nM modified oligonucleotide, approx. 48 hours, RTS4814, normalized to RIBOGREEN, Yap1 mRNA relative to untreated control cells): 40 % UTC
YAP1 (% UT) (Yap1 mRNA [3]; [9]): 46 % UT

1076453 (kG*kT*kA*dA*dT*dA*dT*dT*dG*d[5mC]*dA*dA*dT*k[5mC]*kT*kG) [Compound 1076453]
YAP1 (% UTC) (Yap1 mRNA [2]; Table 19, A-431 cells, 5,000 cells per well, free uptake, 2,000 nM modified oligonucleotide, approx. 48 hours, RTS4814, normalized to RIBOGREEN, Yap1 mRNA as percent of untreated control): 1 % UTC
YAP1 (% UT) (Yap1 mRNA [3]; [9]): 7 % UT

1074726 (antisense kG*kG*kT*dA*dT*dA*dA*d[5mC]*dT*dG*dG*dG*d[5mC]*kA*kA*kA) [Compound 1074726]
YAP1 (% UTC) (Yap1 mRNA [2]; Table 20, Yap1 mRNA, percent of untreated control, 3-10-3 cEt gapmers targeting SEQ ID NO.: 1 and 2): 2 % UTC
YAP1 (% UT) (Yap1 mRNA [3]; [11]): 23 % UT

716524 (antisense kA*k[5mC]*kT*dG*dA*dG*dG*dT*dA*dT*dA*dA*d[5mC]*kT*kG*kG) [Compound 716524]
YAP1 (% UTC) (Yap1 mRNA [2]; Table 5, A-431 cells, 5,000 cells per well, free uptake, 2,000 nM modified oligonucleotide, approx. 48 hours, RTS4814, normalized to RIBOGREEN, Yap1 mRNA relative to untreated control cells): 35 % UTC
YAP1 (% UT) (Yap1 mRNA [3]; [11]): 59 % UT

1076456 (antisense k[5mC]*kT*kT*dT*dA*dA*dA*dG*dT*dG*dT*dA*dT*kG*kT*k[5mC]) [Compound 1076456]
YAP1 (% UTC) (Yap1 mRNA [2]; [10]): 2 % UTC
YAP1 (% UT) (Yap1 mRNA [3]; [11]): 44 % UT

1074727 (antisense kG*kA*kG*dG*dT*dA*dT*dA*dA*d[5mC]*dT*dG*dG*kG*k[5mC]*kA) [Compound 1074727]
YAP1 (% UTC) (Yap1 mRNA [2]; Table 21, Yap1 mRNA, percent of untreated control, 3-10-3 cEt gapmers targeting SEQ ID NO.: 1 and 2): 9 % UTC
YAP1 (% UT) (Yap1 mRNA [3]; [11]): 51 % UT

1198888 (kA*kG*dA*d[5mC]*dT*dA*dA*dG*dT*dA*dA*kG*eG*kT*eT*kT; antisense) [Compound 1198888]
YAP1 (% UT) (Yap1 mRNA [3]; Table 46, Yap1 mRNA as percent of untreated control, SNU-449 cells, single dose): 51 % UT

1198350 (kT*kA*kT*dG*dT*dA*dA*dT*dA*dT*dT*dG*k[5mC]*eA*kA*eT; antisense) [Compound 1198350]
YAP1 (% UT) (Yap1 mRNA [3]; Table 49, Yap1 mRNA level relative to untreated control, modified oligonucleotides targeting SEQ ID NO.: 1 and 2): 83 % UT

1198625 (kG*kA*k[5mC]*dT*dA*dA*dG*dT*dA*dA*dG*dG*kT*kT*kT*e[5mC]; antisense) [Compound 1198625]
YAP1 (% UT) (Yap1 mRNA [3]; Table 50, Yap1 mRNA remaining as percent of untreated control (UT), SNU-449 cells, single dose): 64 % UT

1198475 (antisense kG*kG*dT*dA*dT*dA*dA*d[5mC]*dT*dG*dG*eG*k[5mC]*eA*kA*eA) [Compound 1198475]
YAP1 (% UTC) (Yap1 mRNA [3]; Table 44 experiment, free uptake, 2,000 nM, approximately 48 hours, Yap1 mRNA normalized to RIBOGREEN, relative to untreated control cells): 25 % UTC

1197295 (G_{ks}^{m}C_{ks}T_{ks}T_{ds}U_{ys}G_{ds}G_{ds}A_{ds}A_{ds}G_{ds}A_{ds}T_{ds}C_{ds}T_{ks}G_{ks}A_{k}; as printed in the source, key not given here) [Compound 1197295]
YAP1 (% UT) (Yap1 mRNA [3]; Table 51, Yap1 mRNA remaining as percent of untreated control (UT), SNU-449 cells, single dose): 24 % UT

1198420 (kA*dT*dA*dT*dG*dG*dT*dT*dT*dT*dG*kT*eG*kT*eG*kT; antisense) [Compound 1198420]
YAP1 (% UTC) (Yap1 mRNA [3]; Table 39, free uptake, 2,000 nM oligonucleotide, approx. 48 hours, normalized to RIBOGREEN, Yap1 mRNA relative to untreated control): 41 % UTC

1097037 (antisense kA*kG*kA*dT*dT*dT*dA*dG*dG*dA*dT*dG*d[5mC]*kA*kT*kG) [Compound 1097037]
YAP1 (% UT) (Yap1 mRNA [3]; [9]): 38 % UT

Source: US11214803B2, “Modulators of YAP1 expression” (Ionis Pharmaceuticals, Inc., priority 2019, dated 2022)
